Reference: publication PMC8879702, “Discovery of Small Molecule Activators of Chemokine Receptor CXCR4 That Improve Diabetic Wound Healing” (International Journal of Molecular Sciences, 2022)

System: CEM-CCRF cells
Assay: 96 wells transwell migration assay in CEM human lymphoblast cells
Format: cell-based
Settings: Homo sapiens; normalized to media only and 6nM SDF-1a; read-out: logIC50 inhibition of migration (converted)
Excerpt: Thus, to confirm CXCR4 functional activity, we evaluated UCUF-728 in a 96 wells transwell migration assay in CEM human lymphoblast cells. […] (Supplemental Figure S7). From the analog structure–activity relationship studies and characterization studies in the chemotaxis assay, cAMP signaling and CXCR4 binding assay, we identified UCUF-728 as a potent and functionally selective CXCR4 receptor modulator.
CEM-CCRF (ATCC CCL-119) were suspended in RPMI 1640 (Corning; 10-040-CV) at 5.0 × 10^5 cells/mL and allowed to incubate in cell culture incubator at 37 °C with 5% CO2 for one hour. […] Following 1 h cell incubation and compound dispensing, 150 μL of RPMI 1640 supplemented with 2% Fetal Bovine Serum was added to each well of the compound receiver tray, and 50 μL of 5 × 10^5 cells/mL cell suspension in RPMI were added to each well of the top filter plate. Plates were reassembled and placed in a cell culture incubator at 37 °C with 5% CO2 for three hours. After incubation, Multi-Screen plate was disassembled and 100 μL of solution was collected from compound receiver tray and transferred to 96 well luminescent plate and an equal volume of ATPLite 1step luminescence reagent (Perkin Elmer, Waltham, MA, USA) was added to each well. Luminescence was measured using the CLARIOstar Plus (BMG LABTECH Inc., Cary, NC, USA).

| Compound | IC50 |
| --- | --- |
| c1cc(CN2CCCNCCNCCCNCC2)ccc1CN1CCCNCCNCCCNCC1 [AMD3100, reference compound] | 0.0316 µM |

Same assay, conditions: compound in lower channel, 3 h

| Compound | induction of cell migration |
| --- | --- |
| SDF-1α | induced migration in the typical bell-shaped curve |

Biological target: T1, CXCR4 receptor (Homo sapiens, UniProt P61073)
T1 sequence (P61073 whole entry): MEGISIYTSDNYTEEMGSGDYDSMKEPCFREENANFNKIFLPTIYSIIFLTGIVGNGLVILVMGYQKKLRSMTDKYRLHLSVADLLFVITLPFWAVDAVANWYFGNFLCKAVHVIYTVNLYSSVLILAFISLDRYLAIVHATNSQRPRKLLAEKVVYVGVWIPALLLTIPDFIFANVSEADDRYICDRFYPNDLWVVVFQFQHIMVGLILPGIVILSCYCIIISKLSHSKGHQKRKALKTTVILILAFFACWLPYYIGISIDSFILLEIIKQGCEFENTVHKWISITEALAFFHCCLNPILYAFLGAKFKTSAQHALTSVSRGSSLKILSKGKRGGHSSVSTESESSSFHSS
Assay: primary 1536 w β-arrestin recruitment assay (CXCR4-bla U2OS cells, SDF-1α from R&D systems)
Format: cell-based
Design: host or cells: Tango CXCR4-bla U2OS cells
Settings: not given
Protocol: In our effort to identify CXCR4 activators from the NIH Molecular Library Small Molecule Repository (MLSMR), we developed a primary screening assay to measure β-arrestin recruitment to the activated G-protein coupled receptor (GPCR) by a Florescence Resonance Energy Transfer (FRET) in U2OS cells, overexpressing the CXCR4 receptor engineered with a β-lactamase (bla) reporter system. CXCR4-bla cells plated in 1536 w were stimulated in the presence of 10 µM compound concentration. […] Using this approach, we successfully screened the NIH MLSMR of 370,620 compounds (Figure 1A,B) and identified 303 hits (hit rate = 0.08%). […] These compounds were graded according to activity and structure, resulting in 86 compounds that met the criteria as potential CXCR4 agonists for further characterization (Figure 1B). The workflow for high-throughput screening and this study is illustrated in Figure 1B.
Chemical stability, synthetic tractability, solubility and complete dose response and potency criteria led to the prioritization of the 5-aryl-2-cyclopropyl oxazole scaffold, represented by primary hit Compound 2 (Table 1). The early structure–activity relationship was established around the 5-aryl-2-cyclopropyl oxazole core with commercially available analogs with diverse substituents in the sulfonanilide ring of the scaffold. […] Keeping the 2-OMe substituent constant, we screened a small set of electron withdrawing and electron rich substituents at the 5-position of the anilide ring (entries 16–19). […] The analytical data for UCUF-728 is shown in Supplemental Figures S1–S4.

| Compound | EC50 |
| --- | --- |
| O=S(=O)(Nc1ccccc1)c1ccc(-c2cnc(C3CC3)o2)cc1 [Compound 1] | > 80 µM |
| Cc1ccccc1NS(=O)(=O)c1ccc(-c2cnc(C3CC3)o2)cc1 [Compound 2] | 5.9 µM |
| CCc1ccccc1NS(=O)(=O)c1ccc(-c2cnc(C3CC3)o2)cc1 [Compound 3] | 2.6 µM |
| COc1ccccc1NS(=O)(=O)c1ccc(-c2cnc(C3CC3)o2)cc1 [Compound 4] | 6.1 µM |
| CCOc1ccccc1NS(=O)(=O)c1ccc(-c2cnc(C3CC3)o2)cc1 [Compound 5] | 1 µM |
| O=S(=O)(Nc1ccccc1Cl)c1ccc(-c2cnc(C3CC3)o2)cc1 [Compound 6] | 22 µM |
| O=S(=O)(Nc1ccccc1F)c1ccc(-c2cnc(C3CC3)o2)cc1 [Compound 7] | > 80 µM |
| COc1cccc(NS(=O)(=O)c2ccc(-c3cnc(C4CC4)o3)cc2)c1 [Compound 8] | > 80 µM |
| CCOc1ccc(NS(=O)(=O)c2ccc(-c3cnc(C4CC4)o3)cc2)cc1 [Compound 9] | 44.3 µM |
| Cc1cccc(NS(=O)(=O)c2ccc(-c3cnc(C4CC4)o3)cc2)c1C [Compound 10] | 1.9 µM |
| Cc1ccc(NS(=O)(=O)c2ccc(-c3cnc(C4CC4)o3)cc2)cc1C [Compound 11] | > 10 µM |
| Cc1ccc(NS(=O)(=O)c2ccc(-c3cnc(C4CC4)o3)cc2)c(C)c1 [Compound 12] | 3.4 µM |
| Cc1ccc(C)c(NS(=O)(=O)c2ccc(-c3cnc(C4CC4)o3)cc2)c1 [Compound 13] | 0.7 µM |
| Cc1cccc(C)c1NS(=O)(=O)c1ccc(-c2cnc(C3CC3)o2)cc1 [Compound 14] | 0.6 µM |
| Cc1cc(C)cc(NS(=O)(=O)c2ccc(-c3cnc(C4CC4)o3)cc2)c1 [Compound 15] | 3.1 µM |
| COc1ccc(Cl)cc1NS(=O)(=O)c1ccc(-c2cnc(C3CC3)o2)cc1 [Compound 16] | 1.65 µM |
| COc1ccc(F)cc1NS(=O)(=O)c1ccc(-c2cnc(C3CC3)o2)cc1 [Compound 17] | 7.3 µM |
| COc1ccc(C)cc1NS(=O)(=O)c1ccc(-c2cnc(C3CC3)o2)cc1 [Compound 18] | 0.9 µM |
| COc1ccc(NS(=O)(=O)c2ccc(-c3cnc(C4CC4)o3)cc2)cc1OC [Compound 20] | > 80 µM |
| COc1cc(NS(=O)(=O)c2ccc(-c3cnc(C4CC4)o3)cc2)cc(OC)c1 [Compound 21] | 5.6 µM |

Same assay, conditions: U2OS

| Compound | Emax |
| --- | --- |
| Cc1ccccc1NS(=O)(=O)c1ccc(-c2cnc(C3CC3)o2)cc1 [Compound 2] | 27% |
| CCc1ccccc1NS(=O)(=O)c1ccc(-c2cnc(C3CC3)o2)cc1 [Compound 3] | 38% |
| COc1ccccc1NS(=O)(=O)c1ccc(-c2cnc(C3CC3)o2)cc1 [Compound 4] | 45% |
| CCOc1ccccc1NS(=O)(=O)c1ccc(-c2cnc(C3CC3)o2)cc1 [Compound 5] | 46% |
| O=S(=O)(Nc1ccccc1Cl)c1ccc(-c2cnc(C3CC3)o2)cc1 [Compound 6] | 35% |
| CCOc1ccc(NS(=O)(=O)c2ccc(-c3cnc(C4CC4)o3)cc2)cc1 [Compound 9] | 38% |
| Cc1cccc(NS(=O)(=O)c2ccc(-c3cnc(C4CC4)o3)cc2)c1C [Compound 10] | 40% |
| Cc1ccc(NS(=O)(=O)c2ccc(-c3cnc(C4CC4)o3)cc2)c(C)c1 [Compound 12] | 38% |
| Cc1ccc(C)c(NS(=O)(=O)c2ccc(-c3cnc(C4CC4)o3)cc2)c1 [Compound 13] | 42% |
| Cc1cccc(C)c1NS(=O)(=O)c1ccc(-c2cnc(C3CC3)o2)cc1 [Compound 14] | 45% |
| Cc1cc(C)cc(NS(=O)(=O)c2ccc(-c3cnc(C4CC4)o3)cc2)c1 [Compound 15] | 39% |
| COc1ccc(Cl)cc1NS(=O)(=O)c1ccc(-c2cnc(C3CC3)o2)cc1 [Compound 16] | 47% |
| COc1ccc(F)cc1NS(=O)(=O)c1ccc(-c2cnc(C3CC3)o2)cc1 [Compound 17] | 42% |
| COc1ccc(C)cc1NS(=O)(=O)c1ccc(-c2cnc(C3CC3)o2)cc1 [Compound 18] | 48% |
| COc1cc(NS(=O)(=O)c2ccc(-c3cnc(C4CC4)o3)cc2)cc(OC)c1 [Compound 21] | 48% |

Biological target: T1, CXCR4 receptor
Assay: cAMP signaling assay, forskolin-induced, PathHunter CHO-K1 CXCR4 cells
Format: cell-based
Settings: CHO-K1 CXCR4 overexpressed cells
Protocol: The CXCR4 receptor is a G-protein coupled receptor (GPCR) coupled to the Gi class, whose primary role is inhibition of adenylate cyclase. We tested the ability of UCUF-728 to induce a Gi-mediated cAMP-inhibitory cellular response. […] (Figure 2B).
Forskolin at final concentration of 0.5 mM was added to all wells using the TECAN dispenser. […] of PathHunter CHO-K1 CXCR4 cells (DiscoverX, Fremont, CA, USA) were added to compounds at 3000 cells/well, centrifuged at 1000 rpm for 30 s and incubated for 30 min at room temperature. DMSO (Sigma Aldrich, St. Louis, MO, USA) was normalized to 0.5%. […] of 4X Eu-cAMP tracer working solution were added to all wells, followed by addition of 5 μL of 4X Ulight-anti-cAMP working solution to all wells. Plates were centrifuged at 1000 rpm for 1 min and incubated for 1 h at room temperature, then read using CLARIOstar Plus (BMG LABTECH Inc., Cary, NC, USA) Lance CAMP protocol.

| Compound | inhibition of forskolin-induced adenylate cyclase (cAMP signaling) |
| --- | --- |
| SDF-1α | inhibited forskolin-induced adenylate cyclase |

Same assay, conditions: maximal response at 40 nM SDF-1α

| Compound | block of SDF-1α inhibition of forskolin-induced cAMP |
| --- | --- |
| c1cc(CN2CCCNCCNCCCNCC2)ccc1CN1CCCNCCNCCCNCC1 [AMD3100, reference compound] | dose-dependently blocked |
